Values of other authors, collected in US20170165232A1, “THREE-PHASE CONTROLLED-RELEASE TABLET COMPRISING MELATONIN AND PROCESS OF PREPARATION” (Ambros Pharma S.R.L., priority 2010, published 2017).

Details: in humans

Q: With `COc1ccc2[nH]cc(CCNC(C)=O)c2c1` [melatonin, N-acetyl-5-methoxytryptamine] as the compound, how does the half-life read?
A: The half-life was “about 40 minutes”.
